Source: PubChem BioAssay (NCI)
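Compound exposure: 48 hours, 5 concentrations, 96-well plates. TGI denotes the concentration required for complete inhibition of growth.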

Experiments:
Test in all cases: DTP human tumour cell line panel, 48 h
EKVX NSCLC = system: EKVX NSCLC
K-562 leukemia = system: K-562 leukemia
MCF7 breast = system: MCF7 breast
HT29 colon = system: HT29 colon
NCI-H23 lung = system: NCI-H23 lung
MDA-N = system: MDA-N
DU-145 prostate = system: DU-145 prostate
A498 renal = system: A498 renal
NCI/ADR-RES ovarian = system: NCI/ADR-RES ovarian
SF-539 CNS = system: SF-539 CNS
KM12 colon = system: KM12 colon
RXF 393 renal = system: RXF 393 renal
NCI-H522 lung = system: NCI-H522 lung
OVCAR-4 ovarian = system: OVCAR-4 ovarian
SNB-19 CNS = system: SNB-19 CNS
HCT-116 colon = system: HCT-116 colon
MDA-MB-435 = system: MDA-MB-435
MOLT-4 leukemia = system: MOLT-4 leukemia
LOX IMVI melanoma = system: LOX IMVI melanoma
SNB-75 CNS = system: SNB-75 CNS

SMILES	TGI (EKVX NSCLC) [µM]	TGI (K-562 leukemia) [µM]	TGI (MCF7 breast) [µM]	TGI (HT29 colon) [µM]	TGI (NCI-H23 lung) [µM]	TGI (MDA-N) [µM]	TGI (DU-145 prostate) [µM]	TGI (A498 renal) [µM]	TGI (NCI/ADR-RES ovarian) [µM]	TGI (SF-539 CNS) [µM]	TGI (KM12 colon) [µM]	TGI (RXF 393 renal) [µM]	TGI (NCI-H522 lung) [µM]	TGI (OVCAR-4 ovarian) [µM]	TGI (SNB-19 CNS) [µM]	TGI (HCT-116 colon) [µM]	TGI (MDA-MB-435) [µM]	TGI (MOLT-4 leukemia) [µM]	TGI (LOX IMVI melanoma) [µM]	TGI (SNB-75 CNS) [µM]
C=CCSC1=N/C(=C\c2ccc(OC)cc2)C(=O)N1CC=C	59.2	> 100	> 100	> 100	> 100	59.8	> 100	66.6	> 100	> 100	71.7	50.1	> 100	> 100	> 100	> 100	> 100	37.1	> 100	–
C[C@@H](NC(=O)Cn1c(Cl)nc2ccccc21)c1ccccc1	> 100	> 100	> 100	> 100	> 100	> 100	> 100	> 100	> 100	> 100	> 100	> 100	> 100	> 100	> 100	> 100	> 100	> 100	> 100	> 100
O=C(OCc1ccccc1)c1ccc(NCc2cc(O)ccc2O)cc1	3.48	6.98	7.81	20.3	3.73	4.6	13.5	3.21	4.18	2.27	3.62	2.4	0.883	2.99	10.8	3.02	3.9	–	3.14	3.39
O=c1oc2ccccc2c(O)c1C(c1cccc(C(c2c(O)c3ccccc3oc2=O)c2c(O)c3ccccc3oc2=O)c1)c1c(O)c2ccccc2oc1=O	> 100	53.5	61.3	> 100	> 100	> 100	> 100	> 100	> 100	53.9	> 100	> 100	35.6	–	–	> 100	> 100	63.3	60.2	41.6
C[C@H](c1ccccc1)n1c(N)c(-c2nc3ccccc3s2)c2ccc([N+](=O)[O-])cc2c1=O	> 100	4.25	52.2	> 52.7	6.66	> 80.4	> 38.8	75.2	22	54	61.2	–	> 19.7	> 100	> 52.1	10.9	> 79.7	19.9	> 66.6	> 91.7
O=c1[nH]nc(-c2ccccc2)n1-c1cccc([N+](=O)[O-])c1	> 100	> 100	> 100	> 100	> 100	> 100	> 100	> 100	> 100	> 100	> 100	> 100	> 100	> 100	> 100	> 100	> 100	> 100	> 100	> 100
CC(=O)c1c2c(cc3c1CC1(Cc4cc5c(cc4C1)C(=O)CCC5)C3)CCCC2 (centres undefined)	> 87.2	4.79	18.7	> 32.7	> 100	12.9	> 100	8.95	> 100	13.6	78.4	> 25.7	31.4	> 100	80.9	> 47.1	11.4	7.96	> 53.5	> 26.1
O=C1N/C(=N\N=C\c2ccccc2)C2(CCCCC2)O1	> 100	> 100	> 100	> 100	> 100	> 100	> 100	> 100	> 100	> 100	> 100	> 100	> 100	> 100	> 100	> 100	> 100	> 100	> 100	88.5
CO[C@@H]1C[C@H]2[C@@H]3CC[C@H]([C@H](C)COC(C)=O)[C@@]3(C)CC[C@@H]2[C@@]2(C)CC[C@H]3C[C@]312	> 100	> 100	> 100	> 100	> 100	> 100	> 100	> 100	> 100	> 100	> 100	> 100	> 100	> 100	> 100	> 100	> 100	> 100	> 100	> 100
CNC(=O)CCCNC(=O)CCCCC(=O)N(C)C	–	> 100	> 100	> 100	> 100	> 100	> 100	> 100	> 100	> 100	> 100	> 100	> 100	> 100	> 100	> 100	> 100	> 100	–	–
COC1(OC)N=C(N)C2(C#N)C(C)=C3NCN(C)N=C3C12C#N (centres undefined)	> 100	> 100	> 100	> 100	> 100	> 100	> 100	> 100	> 100	> 100	> 100	> 100	> 100	–	> 100	> 100	> 100	–	> 100	> 100
CCOC(=O)N/N=C(\CC)NO	> 100	> 100	> 100	> 100	> 100	> 100	> 100	> 100	> 100	> 100	> 100	> 100	> 100	> 100	> 100	> 100	> 100	> 100	> 100	–
